Test results from patent publication US6566344B1, “β-L-2′-deoxy-nucleosides for the treatment of hepatitis B” (priority 1998, dated 2003).

Tests used:
[1] = test system: woodchuck hepatitis virus (WHV); assay: Woodchuck model of chronic HBV infection (WHV DNA in serum); type: in vivo, woodchucks (Marmota monax)
Protocol: The efficacy of L-dA, L-dT and L-dC against hepadnavirus infection in woodchucks (Marmota monax) chronically infected with woodchuck hepatitis virus (WHV) was determined. This animal model of HBV infection is widely accepted and has proven to be useful for the evaluation of antiviral agents directed against HBV. Experimental groups (n=3 animals/drug group, n=4 animals/control) [table] Drugs were administered by oral gavage once daily, and blood samples taken on days 0, 1, 3, 7, 14, 21, 28, and on post-treatment days +1, +3, +7, +14, +28 and +56. Assessment of the activity and toxicity was based on the reduction of WHV DNA in serum: dot-blot, quantative PCR.

[2] = target: woodchuck hepatitis virus (WHV) DNA polymerase (Woodchuck hepatitis B virus, UniProt P03160); assay: Inhibition of woodchuck hepatitis virus (WHV) DNA polymerase by triphosphates
[3] = target: human DNA polymerase β (Homo sapiens, UniProt P06746); assay: Inhibition of human DNA polymerase β (Dixon plot, calf thymus activated DNA, dATP); type: biochemical; conditions: calf thymus activated DNA as template-primer, dATP as substrate; read-out: DNA pol β Ki
[4] = target: T1, human DNA polymerase α (Homo sapiens, UniProt P09884); assay: Inhibition of human DNA polymerase α (Dixon plot, calf thymus activated DNA, dATP); type: biochemical; conditions: calf thymus activated DNA as template-primer, dATP as substrate; read-out: DNA pol α Ki
T1 sequence (P09884 1-1462): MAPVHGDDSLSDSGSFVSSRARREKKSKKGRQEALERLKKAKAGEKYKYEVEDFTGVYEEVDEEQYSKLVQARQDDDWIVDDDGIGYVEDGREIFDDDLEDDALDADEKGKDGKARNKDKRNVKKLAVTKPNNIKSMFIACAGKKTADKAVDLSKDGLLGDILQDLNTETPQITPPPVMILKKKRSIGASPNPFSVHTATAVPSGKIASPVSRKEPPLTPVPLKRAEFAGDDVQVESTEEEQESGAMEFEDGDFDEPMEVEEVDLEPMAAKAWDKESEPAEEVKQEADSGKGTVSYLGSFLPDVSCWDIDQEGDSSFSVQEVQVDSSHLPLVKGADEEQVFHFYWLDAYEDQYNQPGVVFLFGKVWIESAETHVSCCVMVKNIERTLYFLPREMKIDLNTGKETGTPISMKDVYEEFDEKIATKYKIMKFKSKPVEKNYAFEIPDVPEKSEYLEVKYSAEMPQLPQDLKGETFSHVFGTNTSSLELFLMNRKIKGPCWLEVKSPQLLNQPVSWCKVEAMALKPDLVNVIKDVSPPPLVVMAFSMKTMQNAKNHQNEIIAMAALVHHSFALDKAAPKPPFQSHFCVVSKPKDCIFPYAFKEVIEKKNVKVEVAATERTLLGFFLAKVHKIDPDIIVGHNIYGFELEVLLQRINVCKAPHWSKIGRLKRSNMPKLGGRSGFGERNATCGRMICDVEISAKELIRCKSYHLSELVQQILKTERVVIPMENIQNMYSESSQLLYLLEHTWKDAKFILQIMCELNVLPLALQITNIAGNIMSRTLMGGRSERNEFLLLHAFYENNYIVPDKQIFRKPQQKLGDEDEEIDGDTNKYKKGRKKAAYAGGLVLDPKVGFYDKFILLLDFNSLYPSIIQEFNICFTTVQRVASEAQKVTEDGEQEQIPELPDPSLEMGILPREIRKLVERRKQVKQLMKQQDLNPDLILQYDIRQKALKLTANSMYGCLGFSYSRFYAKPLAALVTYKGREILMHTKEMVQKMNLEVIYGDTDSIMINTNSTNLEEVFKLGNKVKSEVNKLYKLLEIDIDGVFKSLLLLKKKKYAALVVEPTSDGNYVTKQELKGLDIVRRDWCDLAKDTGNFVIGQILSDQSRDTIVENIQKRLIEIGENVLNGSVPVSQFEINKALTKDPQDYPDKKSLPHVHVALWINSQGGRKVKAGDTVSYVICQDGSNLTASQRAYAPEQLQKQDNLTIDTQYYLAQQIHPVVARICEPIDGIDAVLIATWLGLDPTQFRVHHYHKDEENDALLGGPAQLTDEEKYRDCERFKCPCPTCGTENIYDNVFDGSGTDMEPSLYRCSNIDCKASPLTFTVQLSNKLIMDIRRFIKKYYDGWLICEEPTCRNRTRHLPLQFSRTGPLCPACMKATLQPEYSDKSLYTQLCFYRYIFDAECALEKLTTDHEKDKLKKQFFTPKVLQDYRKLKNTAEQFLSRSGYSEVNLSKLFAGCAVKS

[5] = target: T2, human DNA polymerase γ (Homo sapiens, UniProt P54098); assay: Inhibition of human DNA polymerase γ (Dixon plot, calf thymus activated DNA, dATP); type: biochemical; conditions: calf thymus activated DNA as template-primer, dATP as substrate; read-out: DNA pol γ Ki
T2 sequence (P54098 1-1239): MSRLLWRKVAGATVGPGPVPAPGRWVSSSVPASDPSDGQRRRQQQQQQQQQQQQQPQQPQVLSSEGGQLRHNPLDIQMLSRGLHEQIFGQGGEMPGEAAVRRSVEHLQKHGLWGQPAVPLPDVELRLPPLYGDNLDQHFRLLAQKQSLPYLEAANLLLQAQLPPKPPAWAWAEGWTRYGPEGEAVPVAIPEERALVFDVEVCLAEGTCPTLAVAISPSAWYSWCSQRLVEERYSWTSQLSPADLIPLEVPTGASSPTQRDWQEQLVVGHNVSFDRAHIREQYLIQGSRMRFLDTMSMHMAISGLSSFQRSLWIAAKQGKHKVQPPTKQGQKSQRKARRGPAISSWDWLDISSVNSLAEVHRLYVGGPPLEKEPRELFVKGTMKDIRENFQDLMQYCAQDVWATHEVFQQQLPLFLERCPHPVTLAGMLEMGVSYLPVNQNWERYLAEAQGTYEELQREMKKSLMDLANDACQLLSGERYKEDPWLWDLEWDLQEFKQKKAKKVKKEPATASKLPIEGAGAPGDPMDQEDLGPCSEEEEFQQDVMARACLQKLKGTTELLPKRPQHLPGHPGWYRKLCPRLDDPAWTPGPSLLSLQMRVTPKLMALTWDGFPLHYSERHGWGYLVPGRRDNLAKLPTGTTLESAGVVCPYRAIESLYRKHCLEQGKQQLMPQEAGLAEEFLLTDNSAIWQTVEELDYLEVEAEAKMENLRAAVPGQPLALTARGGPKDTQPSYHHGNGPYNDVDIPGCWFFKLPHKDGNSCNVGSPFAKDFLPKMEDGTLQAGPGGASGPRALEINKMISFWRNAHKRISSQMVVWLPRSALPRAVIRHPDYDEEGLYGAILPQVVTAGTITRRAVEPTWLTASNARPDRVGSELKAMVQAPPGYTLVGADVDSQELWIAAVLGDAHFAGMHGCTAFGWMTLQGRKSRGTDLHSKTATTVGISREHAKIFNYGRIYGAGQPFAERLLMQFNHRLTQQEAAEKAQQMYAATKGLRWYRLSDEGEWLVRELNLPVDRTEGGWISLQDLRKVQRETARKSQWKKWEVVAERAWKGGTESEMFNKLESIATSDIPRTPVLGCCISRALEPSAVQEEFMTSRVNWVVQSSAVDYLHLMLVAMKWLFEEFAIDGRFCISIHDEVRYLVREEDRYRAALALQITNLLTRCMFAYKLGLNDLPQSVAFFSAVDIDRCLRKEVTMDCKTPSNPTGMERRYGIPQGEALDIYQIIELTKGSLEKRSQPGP

woodchuck hepatitis virus (WHV) DNA polymerase, sequence (P03160 whole entry): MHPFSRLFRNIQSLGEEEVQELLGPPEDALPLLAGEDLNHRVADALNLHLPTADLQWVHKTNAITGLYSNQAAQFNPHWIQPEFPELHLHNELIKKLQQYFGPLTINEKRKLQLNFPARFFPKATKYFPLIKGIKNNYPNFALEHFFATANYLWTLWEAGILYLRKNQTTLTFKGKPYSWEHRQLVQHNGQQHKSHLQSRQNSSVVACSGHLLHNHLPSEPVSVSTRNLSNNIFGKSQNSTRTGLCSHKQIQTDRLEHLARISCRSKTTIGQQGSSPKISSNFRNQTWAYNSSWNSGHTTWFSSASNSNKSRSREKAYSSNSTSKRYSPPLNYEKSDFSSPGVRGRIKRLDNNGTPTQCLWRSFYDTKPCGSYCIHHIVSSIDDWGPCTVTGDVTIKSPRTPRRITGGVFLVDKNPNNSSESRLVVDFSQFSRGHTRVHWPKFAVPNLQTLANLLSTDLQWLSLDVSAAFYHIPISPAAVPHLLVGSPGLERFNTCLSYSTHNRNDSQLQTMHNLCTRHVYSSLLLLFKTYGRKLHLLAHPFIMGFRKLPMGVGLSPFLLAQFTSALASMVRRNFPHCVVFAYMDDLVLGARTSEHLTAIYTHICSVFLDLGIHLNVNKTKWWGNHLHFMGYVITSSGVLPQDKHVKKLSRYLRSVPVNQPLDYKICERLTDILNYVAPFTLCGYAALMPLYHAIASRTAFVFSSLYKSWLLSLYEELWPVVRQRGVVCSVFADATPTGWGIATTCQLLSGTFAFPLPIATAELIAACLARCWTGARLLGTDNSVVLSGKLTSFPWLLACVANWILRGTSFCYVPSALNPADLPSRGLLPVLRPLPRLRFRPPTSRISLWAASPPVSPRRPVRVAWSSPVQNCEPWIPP

| Compound | activity compared with 3TC (lamivudine) [1] | viral load reduced to (level) [1] | IC50 [2] | Ki [3] | Ki [4] | Ki [5] | viral rebound after withdrawal ([1]; post-treatment) |
| --- | --- | --- | --- | --- | --- | --- | --- |
| Nc1ncnc2c1ncn2[C@@H]1C[C@@H](O)[C@H](CO)O1 [β-L-dA, 2′-Deoxy-β-L-adenosine] | more active than 3TC (lamivudine) | nearly undetectable | – | – | – | – | – |
| Nc1ncnc2c1ncn2[C@@H]1C[C@@H](O)[C@H](COP(=O)(O)OP(=O)(O)OP(=O)(O)O)O1 [β-L-dA-TP] | – | – | 2.3 µM | > 100 µM | > 100 µM | – | – |
| Nc1ccn([C@@H]2C[C@@H](O)[C@H](CO)O2)c(=O)n1 [β-L-dC, 2′-Deoxy-β-L-cytidine] | more active than 3TC (lamivudine) | nearly undetectable | – | – | – | – | – |
| Nc1ccn([C@@H]2C[C@@H](O)[C@H](COP(=O)(O)OP(=O)(O)OP(=O)(O)O)O2)c(=O)n1 [β-L-dC-TP] | – | – | 2 µM | > 100 µM | > 100 µM | > 100 µM | – |
| Cc1cn([C@@H]2C[C@@H](O)[C@H](CO)O2)c(=O)[nH]c1=O [β-L-dT, 2′-Deoxy-β-L-Thymidine] | more active than 3TC (lamivudine) | undetectable | – | – | – | – | not detected for at least two weeks |
| Cc1cn([C@@H]2C[C@@H](O)[C@H](COP(=O)(O)OP(=O)(O)OP(=O)(O)O)O2)c(=O)[nH]c1=O [β-L-dT-TP] | – | – | 0.34 µM | > 100 µM | > 100 µM | > 100 µM | – |
| O=c1ccn([C@@H]2C[C@@H](O)[C@H](COP(=O)(O)OP(=O)(O)OP(=O)(O)O)O2)c(=O)[nH]1 [β-L-dU-TP] | – | – | 8 µM | > 100 µM | > 100 µM | > 100 µM | – |
